Reference: patent US11173151B2, “Substituted triazole derivatives and uses thereof” (BAYER AKTIENGESELLSCHAFT, priority 2017, dated 2021)
pIC50: −log10 of the molar value. Read-outs that look alike come from different tables or passages of the source.

What was measured:
human V1a receptor = target: T1, human V1a receptor (Homo sapiens, UniProt P37288); assay: Cellular in vitro assay for determining vasopressin receptor activity, V1a receptor cell line (CHO, aequorin luminescence); assay type: cell-based; conditions: for pIC50: CHO cell line transfected with human V1a receptor, [Arg]-vasopressin at EC50 concentration, read-out: IC50 hV1a; for ratio IC50 hV2/hV1a: selectivity ratio IC50 hV2 / IC50 hV1a
T1 construct: expressed in transfected cells; host or cells: CHO K1 (ATCC), also stably transfected with a modified aequorin
How it was run: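 CHO K1/aequorin cells, coelenterazine 5 μg/ml o/n; cpd 10 min; [Arg]-vasopressin at EC50; luminescence read immediately; IC50.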

human V2 receptor = target: T2, human V2 receptor (Homo sapiens, UniProt P30518); assay: Cellular in vitro assay for determining vasopressin receptor activity, V2 receptor cell line (CHO, CRE-luciferase); assay type: cell-based; conditions: CHO cell line transfected with human V2 receptor, [Arg8]-vasopressin at EC50 concentration, read-out: IC50 hV2
T2 construct: expressed in transfected cells; host or cells: CHO K1 (ATCC) expressing firefly luciferase under a CRE-responsive promoter
T2 sequence (P30518 whole entry): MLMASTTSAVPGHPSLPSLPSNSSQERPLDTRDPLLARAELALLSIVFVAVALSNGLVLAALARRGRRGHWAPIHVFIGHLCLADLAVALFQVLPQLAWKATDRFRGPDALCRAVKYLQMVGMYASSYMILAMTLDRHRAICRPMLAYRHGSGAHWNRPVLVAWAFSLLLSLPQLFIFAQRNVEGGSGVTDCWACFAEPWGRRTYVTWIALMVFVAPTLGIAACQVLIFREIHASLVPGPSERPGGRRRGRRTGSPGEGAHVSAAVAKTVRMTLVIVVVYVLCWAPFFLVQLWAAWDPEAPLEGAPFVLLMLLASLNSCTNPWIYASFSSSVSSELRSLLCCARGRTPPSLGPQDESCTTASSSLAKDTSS

T1 sequence (P37288 whole entry): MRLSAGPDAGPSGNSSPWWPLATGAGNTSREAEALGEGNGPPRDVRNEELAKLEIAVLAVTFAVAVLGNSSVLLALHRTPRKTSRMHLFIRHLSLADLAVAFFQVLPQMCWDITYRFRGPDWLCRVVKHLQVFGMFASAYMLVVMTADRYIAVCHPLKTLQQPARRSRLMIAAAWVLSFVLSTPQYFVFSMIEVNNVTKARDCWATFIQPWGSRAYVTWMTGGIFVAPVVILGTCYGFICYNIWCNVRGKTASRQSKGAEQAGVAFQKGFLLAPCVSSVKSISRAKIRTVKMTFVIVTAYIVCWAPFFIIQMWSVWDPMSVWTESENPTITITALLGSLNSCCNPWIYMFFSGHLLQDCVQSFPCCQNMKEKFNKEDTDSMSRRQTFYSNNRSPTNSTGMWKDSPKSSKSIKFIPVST

Compound | pIC50 (human V1a receptor) | ratio IC50 hV2/hV1a (human V1a receptor) | pIC50 (human V2 receptor) | pIC50 (human V2 receptor; 3 hours)
O=C(c1ccccc1-n1cnc(Cn2nc(-c3ccc(Cl)cc3)n(C[C@H](O)C(F)(F)F)c2=O)n1)N1CCCC1 [Example 348, 5-(4-Chlorophenyl)-2-({1-[2-(pyrrolidin-1-ylcarbonyl)phenyl]-1H-1,2,4-triazol-3-yl}methyl)-4-[(2S)-3,3,3-trifluoro-2-hydroxypropyl]-2,4-dihydro-3H-1,2,4-triazol-3-one] | 8.41 | 251.9 | – | 6.01
CC[C@H](C)C(=O)Nc1ncccc1-n1cnc(Cn2nc(-c3ccc(Cl)cc3)n(C[C@H](O)C(F)(F)F)c2=O)n1 [Example 119] | 7.46 | 7.7 | – | 6.57
O=C(Nc1ncccc1-n1cnc(Cn2nc(-c3ccc(Cl)cc3)n(C[C@H](O)C(F)(F)F)c2=O)n1)C1CCS(=O)(=O)C1 (mixture of isomers) [Example 82, N-{3-[3-({3-(4-Chlorophenyl)-5-oxo-4-[(2S)-3,3,3-trifluoro-2-hydroxypropyl]-4,5-dihydro-1H-1,2,4-triazol-1-yl}methyl)-1H-1,2,4-triazol-1-yl]pyridin-2-yl}tetrahydrothiophene-3-carboxamide 1,1-dioxide] | 7.48 | 10.2 | – | 6.47
O=C(Nc1ccncc1-n1cnc(Cn2nc(-c3ccc(Cl)cc3)n(C[C@H](O)C(F)(F)F)c2=O)n1)[C@@H]1C[C@@H]1F [Example 34, (1S,2S)—N-{t3-[3-({3-(4-Chlorophenyl)-5-oxo-4-[(2S)-3,3,3-trifluoro-2-hydroxypropyl]-4,5-dihydro-1H-1,2,4-triazol-1-yl}methyl)-1H-1,2,4-triazol-1-yl]pyridin-4-yl}-2-fluorocyclopropanecarboxamide] | 7.87 | 92.1 | – | 5.91
O=C(Nc1cccnc1-n1cnc(Cn2nc(-c3ccc(Cl)cc3)n(C[C@H](O)C(F)(F)F)c2=O)n1)[C@@H]1C[C@@H]1C(F)(F)F (racemic) [Example 45, N-{2-[3-({3-(4-Chlorophenyl)-5-oxo-4-[(2S)-3,3,3-trifluoro-2-hydroxypropyl]-4,5-dihydro-1H-1,2,4-triazol-1-yl}methyl)-1H-1,2,4-triazol-1-yl]pyridin-3-yl}-2-(trifluoromethyl)cyclopropanecarboxamide] | 7.48 | 21.0 | – | 6.16
O=C(Nc1cccnc1-n1cnc(Cn2nc(-c3ccc(Cl)cc3)n(C[C@H](O)C(F)(F)F)c2=O)n1)C1CC1 [Example 44, N-{2-[3-({3-(4-Chlorophenyl)-5-oxo-4-[(2S)-3,3,3-trifluoro-2-hydroxypropyl]-4,5-dihydro-1H-1,2,4-triazol-1-yl}methyl)-1H-1,2,4-triazol-1-yl]pyridin-3-yl}cyclopropanecarboxamide] | 8.37 | 84.7 | – | 6.44
CC1(C)CCCN1C(=O)c1ccccc1-n1cnc(Cn2nc(-c3ccc(Cl)cc3)n(C[C@H](O)C(F)(F)F)c2=O)n1 [Example 336, 5-(4-Chlorophenyl)-2-[(1-{2-[(2,2-dimethylpyrrolidin-1-yl)carbonyl]phenyl}-1H-1,2,4-triazol-3-yl)methyl]-4-[(2S)-3,3,3-trifluoro-2-hydroxypropyl]-2,4-dihydro-3H-1,2,4-triazol-3-one] | 8.55 | 453.6 | – | 5.90
Cc1cncc(NC(=O)c2ccccc2-n2cnc(Cn3nc(-c4ccc(Cl)cc4)n(C[C@H](O)C(F)(F)F)c3=O)n2)c1 [Example 220, 2-[3-({3-(4-Chlorophenyl)-5-oxo-4-[(2S)-3,3,3-trifluoro-2-hydroxypropyl]-4,5-dihydro-1H-1,2,4-triazol-1-yl}methyl)-1H-1,2,4-triazol-1-yl]-N-(5-methylpyridin-3-yl)benzamide] | 8.44 | 58.9 | – | 6.67
O=C(c1ccccc1-n1cnc(Cn2nc(-c3ccc(Cl)cc3)n(C[C@H](O)C(F)(F)F)c2=O)n1)N1CC(O)C1 [Example 290, 5-(4-Chlorophenyl)-2-[(1-{2-[(3-hydroxyazetidin-1-yl)carbonyl]phenyl}-1H-1,2,4-triazol-3-yl)methyl]-4-[(2S)-3,3,3-trifluoro-2-hydroxypropyl]-2,4-dihydro-3H-1,2,4-triazol-3-one] | 8.04 | 92.9 | – | 6.07

Next, values leading:

pIC50 (human V1a receptor) | ratio IC50 hV2/hV1a (human V1a receptor) | pIC50 (human V2 receptor) | pIC50 (human V2 receptor; 3 hours) | Compound
7.35 | 80.9 | 5.44 | – | CC1(NC(=O)c2cccc(C(F)(F)F)c2-n2cnc(Cn3nc(-c4ccc(Cl)cc4)n(C[C@H](O)C(F)(F)F)c3=O)n2)CC1 [Example 414, 2-[3-({3-(4-Chlorophenyl)-5-oxo-4-[(2S)-3,3,3-trifluoro-2-hydroxypropyl]-4,5-dihydro-1H-1,2,4-triazol-1-yl}methyl)-1H-1,2,4-triazol-1-yl]-N-(1-methylcyclopropyl)-3-(trifluoromethyl)benzamide]
8.65 | 66.7 | – | 6.82 | O=C(NC1CCCCC1)c1ccccc1-n1cnc(Cn2nc(-c3ccc(Cl)cc3)n(C[C@H](O)C(F)(F)F)c2=O)n1 [Example 354, 2-[3-({3-(4-Chlorophenyl)-5-oxo-4-[(2S)-3,3,3-trifluoro-2-hydroxypropyl]-4,5-dihydro-1H-1,2,4-triazol-1-yl}methyl)-1H-1,2,4-triazol-1-yl]-N-cyclohexylbenzamide]
5.87 | 0.7 | 6.03 | – | O=C(NCCC(F)(F)F)c1ccncc1-n1nc(Cn2nc(-c3ccc(Cl)cc3)n(C[C@H](O)C(F)(F)F)c2=O)nc1C(=O)N1CCS(=O)(=O)CC1 [Example 519, 3-{3-({3-(4-Chlorophenyl)-5-oxo-4-[(2S)-3,3,3-trifluoro-2-hydroxypropyl]-4,5-dihydro-1H-1,2,4-triazol-1-yl}methyl)-5-[(1,1-dioxidothiomorpholin-4-yl)carbonyl]-1H-1,2,4-triazol-1-yl}-N-(3,3,3-trifluoropropyl)pyridine-4-carboxamide]
7.68 | 61.9 | 5.89 | – | O=C(NCCC(F)(F)F)c1ccncc1-n1cnc(Cn2nc(-c3ccc(Cl)cc3)n(C[C@H](O)C(F)(F)F)c2=O)n1 [Example 491, 3-[3-({3-(4-Chlorophenyl)-5-oxo-4-[(2S)-3,3,3-trifluoro-2-hydroxypropyl]-4,5-dihydro-1H-1,2,4-triazol-1-yl}methyl)-1H-1,2,4-triazol-1-yl]-N-(3,3,3-trifluoropropyl)pyridine-4-carboxamide]
6.53 | 29.2 | – | 5.07 | CC1CN(C(=O)c2cccc(Cl)c2-n2cnc(Cn3nc(-c4ccc(Cl)cc4)n(C[C@H](O)C(F)(F)F)c3=O)n2)CCO1 (mixture of isomers) [Example 377, 2-{[1-(2-Chloro-6-{[2-methylmorpholin-4-yl]carbonyl}phenyl)-1H-1,2,4-triazol-3-yl]methyl}-5-(4-chlorophenyl)-4-[(2S)-3,3,3-trifluoro-2-hydroxypropyl]-2,4-dihydro-3H-1,2,4-triazol-3-one]
8.58 | 315.1 | – | 6.08 | O=C(N[C@H]1C[C@H]1F)c1cccc(Cl)c1-n1cnc(Cn2nc(-c3ccc(Cl)cc3)n(C[C@H](O)C(F)(F)F)c2=O)n1 (racemic) [Example 389, 3-Chloro-2-[3-({3-(4-chlorophenyl)-5-oxo-4-[(2S)-3,3,3-trifluoro-2-hydroxypropyl]-4,5-dihydro-1H-1,2,4-triazol-1-yl}methyl)-1H-1,2,4-triazol-1-yl]-N-[2-fluorocyclopropyl]benzamide]
6.52 | 106.3 | – | 4.49 | NC(=O)[C@@H]1CC(F)(F)CN1C(=O)c1cccc(Cl)c1-n1cnc(Cn2nc(-c3ccc(Cl)cc3)n(C[C@@H](O)C(F)(F)F)c2=O)n1 [Example 396, 1-{3-Chloro-2-[3-({3-(4-chlorophenyl)-5-oxo-4-[(2R)-3,3,3-trifluoro-2-hydroxypropyl]-4,5-dihydro-1H-1,2,4-triazol-1-yl}methyl)-1H-1,2,4-triazol-1-yl]benzoyl}-4,4-difluoro-L-prolinamide]
7.48 | 12.7 | – | 6.38 | O=C(NCC1CC1)c1cccc(Cl)c1-n1cnc(Cn2nc(-c3ccc(Cl)cc3)n(C[C@H](O)C(F)(F)F)c2=O)n1 [Example 370, 3-Chloro-2-[3-({3-(4-chlorophenyl)-5-oxo-4-[(2S)-3,3,3-trifluoro-2-hydroxypropyl]-4,5-dihydro-1H-1,2,4-triazol-1-yl}methyl)-1H-1,2,4-triazol-1-yl]-N-(cyclopropylmethyl)benzamide]
8.14 | 23.6 | 6.77 | – | O=C(NC1CC1)c1cccnc1-n1cnc(Cn2nc(-c3ccc(Cl)cc3)n(C[C@H](O)C(F)(F)F)c2=O)n1 [Example 496, 2-[3-({3-(4-chlorophenyl)-5-oxo-4-[(2S)-3,3,3-trifluoro-2-hydroxypropyl]-4,5-dihydro-1H-1,2,4-triazol-1-yl}methyl)-1H-1,2,4-triazol-1-yl]-N-cyclopropylpyridine-3-carboxamide]
7.15 | 31.0 | 5.66 | – | NC(=O)[C@H]1CC(F)(F)CN1C(=O)c1ncccc1-n1cnc(Cn2nc(-c3ccc(Cl)cc3)n(C[C@H](O)C(F)(F)F)c2=O)n1 [Example 433, 1-({3-[3-({3-(4-Chlorophenyl)-5-oxo-4-[(2S)-3,3,3-trifluoro-2-hydroxypropyl]-4,5-dihydro-1H-1,2,4-triazol-1-yl}methyl)-1H-1,2,4-triazol-1-yl]pyridin-2-yl}carbonyl)-4,4-difluoro-D-prolinamide]
